Numbers after ± are expanded uncertainties.
Columns and labels:
[1] = for viscosity / speed of sound / mass density: 101 kPa, Liquid; for viscosity: Concentric cylinders viscometry; for speed of sound: Pulse-echo method; for mass density: Vibrating tube method
[2] = xn = mol fraction of the nth substance listed; conditions: 101 kPa, Liquid, x2 = 0; for viscosity: Concentric cylinders viscometry; for mass density: Vibrating tube method

CC(CC(C)(C)C)CC(C)(C)C [2,2,4,6,6-pentamethylheptane]
[1]
Conditions | mass density [kg/m3] | speed of sound [m/s] | viscosity [mPa·s]
293.15 K | 745.5 ± 0.6 | 1204 ± 2.2 | 1.29 ± 0.02
303.15 K | 738.2 ± 0.6 | 1164.9 ± 2.2 | 1.1 ± 0.01
313.15 K | 730.9 ± 0.6 | 1126.7 ± 2.2 | 0.941 ± 0.012
323.15 K | 723.5 ± 0.6 | 1089.3 ± 2.2 | 0.827 ± 0.011
333.15 K | 716.1 ± 0.6 | – | 0.726 ± 0.01
343.15 K | 708.6 ± 0.6 | – | 0.643 ± 0.01
353.15 K | 700.9 ± 0.5 | – | 0.573 ± 0.009
363.15 K | 693.2 ± 0.5 | – | 0.515 ± 0.009
373.15 K | 685.5 ± 0.5 | – | 0.467 ± 0.008

Conditions | surface tension liquid-gas [mN/m]
[1], 294 K, Pendant drop shape | 21.8 ± 0.4

CCCCCCCCCCCCCCCC [hexadecane]
[1]
Conditions | mass density [kg/m3] | viscosity [mPa·s]
293.15 K | 773.7 ± 0.3 | 3.44 ± 0.02
303.15 K | 766.8 ± 0.3 | 2.72 ± 0.02
313.15 K | 759.9 ± 0.3 | 2.21 ± 0.02
323.15 K | 752.9 ± 0.3 | 1.82 ± 0.01
333.15 K | 746 ± 0.3 | 1.53 ± 0.01
343.15 K | 739 ± 0.3 | 1.31 ± 0.01
353.15 K | 731.9 ± 0.3 | 1.13 ± 0.01
363.15 K | 724.8 ± 0.3 | 0.99 ± 0.009
373.15 K | 717.7 ± 0.3 | 0.876 ± 0.009

CCCCCCCCCCCCCCCC [hexadecane] + CC(CC(C)(C)C)CC(C)(C)C
[2]
Conditions | mass density [kg/m3] | viscosity [mPa·s]
293.15 K | 773.7 ± 0.3 | 3.44 ± 0.02
303.15 K | 766.8 ± 0.3 | 2.72 ± 0.02
313.15 K | 759.9 ± 0.3 | 2.21 ± 0.02
323.15 K | 752.9 ± 0.3 | 1.82 ± 0.01
333.15 K | 746 ± 0.3 | 1.53 ± 0.01
343.15 K | 739 ± 0.3 | 1.31 ± 0.01
353.15 K | 731.9 ± 0.3 | 1.13 ± 0.01
363.15 K | 724.8 ± 0.3 | 0.99 ± 0.009
373.15 K | 717.7 ± 0.3 | 0.876 ± 0.009

From the NIST ThermoML archive (doi:10.1021/je400839x)
